Data taken from US10894807B2 (Siemens Medical Solutions USA, Inc., priority 2011, dated 2021).

Target: human PSMA (Homo sapiens (Human), UniProt Q04609)
Assay: Enzymatic assay for in vitro evaluation of PSMA inhibitors (fluorescent assay of PSMA activity, NAAG substrate, OPA detection of glutamate)
Format: biochemical

Chain of human PSMA (Q04609 whole entry): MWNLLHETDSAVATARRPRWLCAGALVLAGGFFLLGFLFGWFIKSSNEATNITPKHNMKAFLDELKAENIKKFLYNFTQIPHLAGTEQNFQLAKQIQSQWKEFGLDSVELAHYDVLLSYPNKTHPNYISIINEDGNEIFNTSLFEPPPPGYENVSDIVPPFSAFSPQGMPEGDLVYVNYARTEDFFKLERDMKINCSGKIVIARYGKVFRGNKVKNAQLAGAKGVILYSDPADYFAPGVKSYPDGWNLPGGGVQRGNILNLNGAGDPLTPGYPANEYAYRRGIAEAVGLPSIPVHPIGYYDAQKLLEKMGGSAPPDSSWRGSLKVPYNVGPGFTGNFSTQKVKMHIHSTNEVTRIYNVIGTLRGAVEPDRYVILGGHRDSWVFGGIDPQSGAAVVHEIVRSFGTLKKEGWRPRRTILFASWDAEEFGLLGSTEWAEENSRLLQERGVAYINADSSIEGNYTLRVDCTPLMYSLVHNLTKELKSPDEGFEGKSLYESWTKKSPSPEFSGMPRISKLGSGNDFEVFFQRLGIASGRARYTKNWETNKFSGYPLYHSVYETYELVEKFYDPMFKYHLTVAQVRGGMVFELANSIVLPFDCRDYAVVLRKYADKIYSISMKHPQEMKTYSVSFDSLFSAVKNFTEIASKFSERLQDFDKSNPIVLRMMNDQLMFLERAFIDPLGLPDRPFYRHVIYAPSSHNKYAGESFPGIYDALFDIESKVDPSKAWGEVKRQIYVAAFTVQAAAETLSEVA

Ki [nM] | PSMA Blkg % (1.0 μM) [%] | Compound
 | 5 | O=C(O)CCC(C(=O)O)N1C(=O)N[C@@H](CC2CCN(C(=O)c3ccc(-n4cc(CCCF)nn4)cc3)CC2)C1=O (stereo partly drawn) [P257, 2-((S)-4-((1-(4-(4-(3-Fluoropropyl)-1H-1,2,3-triazol-1-yl)benzoyl)piperidin-4-yl)methyl)-2,5-dioxoimidazolidin-1-yl)pentanedioic Acid]
41 |  | NCCOCCOCCOCCOCCn1cc(-c2ccc(C(=O)NCCCC[C@H](NC(=O)N[C@@H](CCC(=O)O)C(=O)O)C(=O)O)cc2)nn1 [P258, (S)-2-(3-((S)-5-(4-(1-(14-Amino-3,6,9,12-tetraoxatetradecyl)-1H-1,2,3-triazol-4-yl)benzamido)-1-carboxypentyl)ureido)pentanedioic Acid]
 | 98 | O=C(O)CC[C@H](NC(=O)N[C@@H](CCCCNC(=O)c1cc(C(=O)O)cc(-n2cc(CCCF)nn2)c1)C(=O)O)C(=O)O [P259, (S)-2-(3-((S)-1-Carboxy-5-(3-carboxy-5-(4-(3-fluoropropyl)-1H-1,2,3-triazol-1-yl)benzamido)pentyl)ureido)pentanedioic Acid]
 | 81 | CCN(CC)C(=O)c1cc(C(=O)NCCCC[C@H](NC(=O)N[C@@H](CCC(=O)O)C(=O)O)C(=O)O)cc(-n2cc(CCCF)nn2)c1 [P260, (S)-2-(3-((S)-1-Carboxy-5-(3-(diethylcarbamoyl)-5-(4-(3-fluoropropyl)-1H-1,2,3-triazol-1-yl)benzamido)pentyl)ureido)pentanedioic Acid]
1 | 98 | O=C(O)CC[C@H](NC(=O)N[C@@H](CCCCNC(=O)CC[C@H](NC(=O)Cn1cc(CCCF)nn1)C(=O)NCCCC[C@H](NC(=O)N[C@@H](CCC(=O)O)C(=O)O)C(=O)O)C(=O)O)C(=O)O [P261, (3S,7S,14S,23S,27S)-14-(2-(4-(3-Fluoropropyl)-1H-1,2,3-triazol-1-yl)acetamido)-5,13,17,25-tetraoxo-4,6,12,18,24,26-hexaazanonacosane-1,3,7,23,27,29-hexacarboxylic Acid]
 | 96 | O=C(O)CC[C@H](NC(=O)N[C@@H](CCCCNC(=O)N1CCN(C(=O)c2cc(C(=O)O)cc(-n3cc(CCCF)nn3)c2)CC1)C(=O)O)C(=O)O [P262, (S)-2-(3-((S)-1-Carboxy-5-(4-(3-carboxy-5-(4-(3-fluoropropyl)-1H-1,2,3-triazol-1-yl)benzoyl)piperazine-1-carboxamido)pentyl)ureido)pentanedioic Acid]
1.3 | 98 | O=C(O)CC[C@H](NC(=O)N[C@@H](CCCCNC(=O)N1CCN(C(=O)c2cc(C(=O)N3CCN(C(=O)NCCCC[C@@H](NC(=O)N[C@H](CCC(=O)O)C(=O)O)C(=O)O)CC3)cc(-n3cc(CCCF)nn3)c2)CC1)C(=O)O)C(=O)O [P263, (2S,2′S)-2,2′-(((((1S,1′S)-((4,4′-(5-(4-(3-Fluoropropyl)-1H-1,2,3-triazol-1-yl)-isophthaloyl)bis(piperazine-1,1′-carbonyl))bis(azanediyl))bis(1-carboxypentane-5,1-diyl))bis(azanediyl))bis(carbonyl))bis(azanediyl))dipentanedioic Acid]
 | 96 | CCN(CC)C(=O)c1cc(C(=O)N2CCN(C(=O)NCCCC[C@H](NC(=O)N[C@@H](CCC(=O)O)C(=O)O)C(=O)O)CC2)cc(-n2cc(CCCF)nn2)c1 [P264, (S)-2-(3-((S)-1-Carboxy-5-(4-(3-(diethylcarbamoyl)-5-(4-(3-fluoropropyl)-1H-1,2,3-triazol-1-yl)benzoyl)piperazine-1-carboxamido)pentyl)ureido)pentanedioic Acid]
 | 97 | O=C(O)CC[C@H](NC(=O)N[C@@H](CCCCNc1nc(F)ccc1[N+](=O)[O-])C(=O)O)C(=O)O [P265, (S)-2-(3-((S)-1-Carboxy-5-((6-fluoro-3-nitropyridin-2-yl)amino)pentyl)ureido)pentanedioic Acid]
 | 82 | O=C(O)CC[C@H](NC(=O)N[C@@H](CCCCNC(=O)c1cc(C(=O)Nc2ccc(C[C@H](NC(=O)N[C@@H](CCC(=O)O)C(=O)O)C(=O)O)cc2)cc(-n2cc(CCCF)nn2)c1)C(=O)O)C(=O)O [P267, (S)-2-(3-((S)-1-Carboxy-2-(4-(3-(((S)-5-carboxy-5-(3-((S)-1,3-dicarboxypropyl)ureido)pentyl)carbamoyl)-5-(4-(3-fluoropropyl)-1H-1,2,3-triazol-1-yl)benzamido)phenyl)ethyl)ureido)pentanedioic Acid]
 | 68 | O=C(O)CC[C@H](NC(=O)N[C@@H](CCCCNC(=O)c1cc(C(=O)N[C@@H](CCC(=O)O)C(=O)O)cc(-n2cc(CCCF)nn2)c1)C(=O)O)C(=O)O [P268, (S)-2-(3-((S)-1-Carboxy-5-(3-(((S)-1,3-dicarboxypropyl)carbamoyl)-5-(4-(3-fluoropropyl)-1H-1,2,3-triazol-1-yl)benzamido)pentyl)ureido)pentanedioic Acid]
 | 66 | O=C(O)CC[C@H](NC(=O)N[C@@H](CCCCNc1ccc([N+](=O)[O-])c(F)n1)C(=O)O)C(=O)O [P269, (S)-2-(3-((S)-1-Carboxy-5-((6-fluoro-5-nitropyridin-2-yl)amino)pentyl)ureido)pentanedioic Acid]

The remaining lines, values behind:

Compound | Ki [nM] | PSMA Blkg % (1.0 μM) [%]
O=C(O)CC[C@H](NC(=O)C[C@@H](NC(=O)CCNC(=O)c1ccc(-n2cc(CCCF)nn2)cc1)C(=O)O)C(=O)O [P245, (S)-2-((R)-3-Carboxy-3-(3-(4-(4-(3-fluoropropyl)-1H-1,2,3-triazol-1-yl)benzamido)propanamido)-propanamido)pentanedioic Acid] | 156 | 62
O=C(O)CC[C@H](NC(=O)N[C@@H](CCCCNC(=O)c1cc(C(=O)NCCCC[C@H](NC(=O)N[C@@H](CCC(=O)O)C(=O)O)C(=O)O)cc(-n2cc(CCCF)nn2)c1)C(=O)O)C(=O)O [P246, (2S,2′S)-2,2′-(((((1S,1′S)-((5-(4-(3-Fluoropropyl)-1H-1,2,3-triazol-1-yl)isophthaloyl)bis(azanediyl))bis(1-carboxypentane-5,1-diyl))bis(azanediyl))bis(carbonyl))bis(azanediyl))dipentanedioic Acid] | 0.16 | 100
O=C(O)CC[C@H](NC(=O)N[C@@H](CCCCn1c(=O)[nH]c2ccc(OCc3cn(CCF)nn3)cc21)C(=O)O)C(=O)O [P247, (S)-2-(3-((S)-1-Carboxy-5-(6-((1-(2-fluoroethyl)-1H-1,2,3-triazol-4-yl)methoxy)-2-oxo-2,3-dihydro-1H-benzo[d]imidazol-1-yl)pentyl)ureido)pentanedioic Acid] | 0.63 | 100
O=C(O)CC[C@H](NC(=O)N[C@@H](Cc1ccc(NC(=O)N2CCN(C(=O)c3ccc(-n4cc(CCCF)nn4)cc3)CC2)cc1)C(=O)O)C(=O)O [P248, (S)-2-(3-((S)-1-Carboxy-2-(4-(4-(4-(4-(3-fluoropropyl)-1H-1,2,3-triazol-1-yl)benzoyl)piperazine-1-carboxamido)phenyl)ethyl)ureido)pentanedioic Acid] | 3.4 | 100
O=C(O)CC[C@H](NC(=O)N[C@@H](CC1CCN(C(=S)Nc2ccc(-n3cc(CCCF)nn3)cc2)CC1)C(=O)O)C(=O)O [P250, (S)-2-(3-((S)-1-Carboxy-2-(1-((4-(4-(3-fluoropropyl)-1H-1,2,3-triazol-1-yl)phenyl)carbamothioyl)piperidin-4-yl)ethyl)ureido)pentanedioic Acid] | 4.1 | 96
O=C(O)CC[C@H](NC(=O)N[C@@H](CCCCNc1cc(OCCOCCOCCn2cc(CCCF)nn2)ccc1[N+](=O)[O-])C(=O)O)C(=O)O [P251, (S)-2-(3-((S)-1-Carboxy-5-((5-(2-(2-(2-(4-(3-fluoropropyl)-1H-1,2,3-triazol-1-yl)ethoxy)ethoxy)ethoxy)-2-nitrophenyl)amino)pentyl)ureido)pentanedioic Acid] | 0.34 | 100
O=C(O)CCC(NC(=O)C[C@@H](NC(=O)CCNC(=O)c1cc(C(=O)NCCC(=O)N[C@H](CC(=O)NC(CCC(=O)O)C(=O)O)C(=O)O)cc(-n2cc(CCCF)nn2)c1)C(=O)O)C(=O)O (stereo partly drawn) [P252, (2S,2′S)-2,2′-(((3R,3′R)-3,3′-((3,3′-((5-(4-(3-Fluoropropyl)-1H-1,2,3-triazol-1-yl)isophthaloyl)bis(azanediyl))bis(propanoyl))bis(azanediyl))bis(3-carboxypropanoyl))bis(azanediyl))dipentanedioic Acid] | 94 | 59
O=C(O)CC[C@H](NC(=O)N[C@@H](Cc1ccc(NC(=O)c2cc(C(=O)O)cc(-n3cc(CCCF)nn3)c2)cc1)C(=O)O)C(=O)O [P253, (S)-2-(3-((S)-1-Carboxy-2-(4-(3-carboxy-5-(4-(3-fluoropropyl)-1H-1,2,3-triazol-1-yl)benzamido)phenyl)ethyl)ureido)pentanedioic Acid] | 0.2 | 96
O=C(O)CC[C@H](NC(=O)N[C@@H](CCCCNc1nc(-c2cccc(NC(=O)CCOCCOCCOCCOCCNC(=O)Cn3cc(CCCF)nn3)c2)cs1)C(=O)O)C(=O)O [P254, (S)-2-(3-((S)-1-Carboxy-5-(4-(3-(1-(4-(3-fluoropropyl)-1H-1,2,3-triazol-1-yl)-2-oxo-6,9,12,15-tetraoxa-3-azaoctadecanamido)phenyl)thiazol-2-ylamino)pentyl)ureido)-pentanedioic Acid] | 0.4 | 95
C[C@@](Cc1cccc(NC(=O)CCCn2cc(CCCF)nn2)c1)(NC(=O)N[C@@H](CCC(=O)O)C(=O)O)C(=O)O [P255, (S)-2-(3-((S)-2-Carboxy-1-(3-(4-(4-(3-fluoropropyl)-1H-1,2,3-triazol-1-yl)butanamido)-phenyl)propan-2-yl)ureido)pentanedioic Acid] |  | 62
C[C@@](Cc1cccc(NC(=O)Cn2cc(CCCF)nn2)c1)(NC(=O)N[C@@H](CCC(=O)O)C(=O)O)C(=O)O [P256, (S)-2-(3-((S)-2-Carboxy-1-(3-(2-(4-(3-fluoropropyl)-1H-1,2,3-triazol-1-yl)acetamido)-phenyl)propan-2-yl)ureido)pentanedioic Acid] |  | 27
